Each structure is given as a SMILES string.

Holding throughout (assay type): in vivo, rat
The subject of test [1] is DAergic neuron in the SNc. Briefly: Histopathological analysis: tyrosine hydroxylase staining of SNc sections. Particulars: 14th day, vs group A1 (saline). Here is the method:
(§1) Wistar male rats (12 week-old, weight ˜400 grams) purchased from the National Laboratory Animal Center (R.O.C.) are used. The rats are housed in an animal room with constant temperature of 24±1° C., where is kept on a 12-hours light and 12-hours dark cycle. The rats are housed and kept on free diet and water.
(§2) On the 1st day, the rats are anesthetized, followed by bilaterally MPTP (1-methyl-4-phenyl-1,2,3,6-tetrahydropyridine hydrochloride)-infusion into the substantia nigra pars compacta (SNc). The rats with cognitive impairments on working memory and object recognition are used as the PDD rats (Ho et al., Behav Brain Res 268: 177-184, 2014).
(§3) Starting on the 1st day, referring to TABLE 1, saline (group Al), erythropoietin (groups A2 & A3) and ceftriaxone (groups A4 & A5) are administrated to the PDD rats in the corresponding groups. Erythropoietin and ceftriaxone are sequentially administrated to the PDD rats of group A6 with a time interval of 30 minutes. Saline is also used to be administrated to the normal rats of group A0. Moreover, saline, erythropoietin and ceftriaxone are administrated for 14 days (from the 1st day to the 14th day).
(§4) On the 14th day, the rats of groups A0-A6 are sacrificed and the coronal sections are collected. The sections with SNc are used for tyrosine hydroxylase staining, while the sections with hippocampal CA1 area are used for Nissl staining. […]

For test [2], the system named is pyramidal neuron in the hippocampal CA1 area. Briefly: Histopathological analysis: Nissl staining of hippocampal CA1 sections. The following applies: 14th day, vs group A1 (saline), p<0.001. The protocol:
as §1, §2, §3, §4

In test [3] the test system is PDD rats. Briefly: Object recognition test in MPTP-induced PDD rats. Particulars: 13th day. Here is the method: as §1, §2
Starting on the 1st day, referring to TABLE 1, saline (group Al), erythropoietin (groups A2 & A3) and ceftriaxone (groups A4 & A5) are administrated to the PDD rats in the corresponding groups. […]
Recognition ability of the rats of groups A0-A6 is measured using the object recognition test (Ho et al., Behav Brain Res 268: 177-184, 2014). […]
On the 13th day, the rat under test “M” is first placed in the open box shown as FIG. 4a, and the time spent exploring the object O1 (TO1) and the total time spent exploring the objects O1, O2 & O3 (TO1+O2+O3) are recorded, respectively. The percentage of the exploration time spent on the object O1 is calculated as (TO1/TO1+O2+O3)*100%. […]

For test [4], the system named is PDD rats. Briefly: T-maze test (working memory) in MPTP-induced PDD rats. Particulars: test on 10th day, vs chance (50%). Here is the method: as §1, §2
Starting on the 1st day, referring to TABLE 1, saline (group Al), erythropoietin (groups A2 & A3) and ceftriaxone (groups A4 & A5) are administrated to the PDD rats in the corresponding groups. Erythropoietin and ceftriaxone are sequentially administrated to the PDD rats of group A6 with a time interval of 30 minutes. […]
Working memory of the rats of groups A0-A6 is assessed using the T-maze test (Ho et al., Behav Brain Res 268: 177-184, 2014). […]
On the 10th day, a test session consisting 3 rounds, each of which is composed of a “forced run” and two “choice run”, is carried out. The number of the rewards “R” that the rat under test “M” get (% of correct response) in the 6 choice runs is recorded.

The mark [5] stands for this setting: group A4, ceftriaxone 5 mg/kg/day, p<0.05.

Turning to `CO/N=C(\C(=O)N[C@@H]1C(=O)N2C(C(=O)O)=C(CSc3nc(=O)c(=O)[nH]n3C)CS[C@H]12)c1csc(N)n1` [ceftriaxone], the “density of DAergic neuron in the SNc” value in test [1] (setting [5]) is recorded as “recovery of DAergic neuron density in the SNc”; in test [1] (group A5, ceftriaxone 10 mg/kg/day, p<0.01) it was “recovery of DAergic neuron density in the SNc”. The “percentage of the CA1 area occupied by the pyramidal neuron” value in test [2] (group A4, ceftriaxone 5 mg/kg/day) was “recovery of pyramidal neuron density in the CA1 area”; in test [2] (group A5, ceftriaxone 10 mg/kg/day), “recovery of pyramidal neuron density in the CA1 area”. Further, the “percentage of time exploring novel object O4 vs object O1 (recognition ability)” value is listed as “can recognize the novel object O4 in the environment” in the test with PDD rats [3] (group A4, ceftriaxone 5 mg/kg/day, p<0.001) and “can recognize the novel object O4 in the environment” in the test on PDD rats [3] (group A5, ceftriaxone 10 mg/kg/day, p<0.05). Besides, the “percentage of correct response in T-maze test (working memory)” value with PDD rats [4] (setting [5]) is listed as “slightly treatment on the cognitive impairment on working memory”; in the test on PDD rats [4] (group A5, ceftriaxone 10 mg/kg/day, p<0.001), “significant treatment on the cognitive impairment on working memory”.

(Values after patent publication US20160310571A1, “Pharmaceutical Composition Comprising Erythropoietin and Ceftriaxone and A Method for Treating Parkinson's Disease Dementia” (Chung Shan Medical University, priority 2015, published 2016).)
